# Article PMC12454871, “Embedding a feruloyl esterase active site into a thermophilic endoxylanase scaffold for the degradation of feruloylated xylans” (Computational and Structural Biotechnology Journal, 2025)
# What was measured:
# Xyn11 [1] = molecular target: T1, Xyn11 (Pseudothermotoga thermarum, UniProt F7YXD6, L292S/K296H, form not given); experiment: phenol red pH-indicator esterase assay, absorbance […] nm; type: biochemical; details: pH 8.0, 90 °C, 5 mM EPPS, 50 mM NaCl; engineered Ser271-His275-Glu272 esterase site
# T1 construct: gene Theth_1636; GH10 single-domain TIM barrel, 342 residues; all rows are the designed double mutant Xyn11m1
# T1 sequence (F7YXD6 entry or part of it L292S/K296H, form open): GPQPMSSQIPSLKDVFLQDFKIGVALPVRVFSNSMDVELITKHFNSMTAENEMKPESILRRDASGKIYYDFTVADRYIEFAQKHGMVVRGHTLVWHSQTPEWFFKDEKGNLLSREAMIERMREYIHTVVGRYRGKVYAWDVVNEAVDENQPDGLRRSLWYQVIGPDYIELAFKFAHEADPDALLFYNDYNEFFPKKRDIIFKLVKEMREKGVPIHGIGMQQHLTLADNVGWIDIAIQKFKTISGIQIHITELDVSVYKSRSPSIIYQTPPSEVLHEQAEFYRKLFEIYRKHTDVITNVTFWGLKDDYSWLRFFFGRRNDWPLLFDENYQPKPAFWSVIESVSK
# Xyn11 [2] = molecular target: T1, Xyn11; experiment: X-ray crystallography, […] Å; type: binding; details: native xylanase active site (E144/E251); trapped expression inducer
SMILES,Km (Xyn11 [1]) [µM],"X-ray crystallography, 2.1 Å (Xyn11 [2])"
COC(=O)/C=C/c1ccc(O)c(OC)c1 [methyl ferulate],2900 ± 200,–
CC(C)S[C@@H]1O[C@H](CO)[C@H](O)[C@H](O)[C@H]1O [IPTG],–,E144 and E251 and includes a trapped IPTG molecule
